Results published in paper PMC10663540, “Structure-based discovery of dual pathway inhibitors for SARS-CoV-2 entry” (Nature Communications, 2023).
Several values for one entry are separate records, joined by “and”; a condition that tells them apart may be missing. Equal entries are not always repeated. Where two headings read alike, the source gives them in different places.

How the values were obtained:
[1] = system: SARS-CoV-2; format: cell-based; conditions: Supplementary Fig. 7b
[2] = biological target: TMPRSS2 (Homo sapiens, UniProt O15393); experiment: biochemical; format: biochemical
TMPRSS2, sequence (O15393 256-492): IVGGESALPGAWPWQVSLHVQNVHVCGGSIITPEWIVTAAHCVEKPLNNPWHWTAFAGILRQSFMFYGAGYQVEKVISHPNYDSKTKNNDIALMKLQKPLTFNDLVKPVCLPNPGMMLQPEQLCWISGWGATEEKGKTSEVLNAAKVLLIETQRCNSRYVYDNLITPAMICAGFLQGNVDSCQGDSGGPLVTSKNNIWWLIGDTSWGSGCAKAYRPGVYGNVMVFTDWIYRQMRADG
TMPRSS2, sequence (O15393 other isoform, or with tags, fused parts or gaps): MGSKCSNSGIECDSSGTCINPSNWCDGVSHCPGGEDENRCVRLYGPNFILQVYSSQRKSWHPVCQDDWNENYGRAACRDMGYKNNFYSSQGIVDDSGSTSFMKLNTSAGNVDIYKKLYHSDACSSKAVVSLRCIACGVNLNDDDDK

[3] = in vitro; conditions: human
[4] = system: Calu-3 cells; conditions: rep1-rep3
[5] = biological target: T1, human CTSL (Homo sapiens, UniProt P07711); experiment: FRET enzymatic inhibition assay of CTSL (IC50 measurement); format: biochemical; conditions: rep1-rep4
T1 construct: made in house
T1 sequence (P07711 114-333): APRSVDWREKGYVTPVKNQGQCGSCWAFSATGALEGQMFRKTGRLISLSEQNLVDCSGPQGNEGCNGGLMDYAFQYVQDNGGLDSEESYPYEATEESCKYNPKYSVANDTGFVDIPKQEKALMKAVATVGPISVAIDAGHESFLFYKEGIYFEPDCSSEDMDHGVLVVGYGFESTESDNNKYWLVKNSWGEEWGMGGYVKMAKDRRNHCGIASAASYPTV

## CN(C)C(=O)COC(=O)Cc1ccc(OC(=O)c2ccc(NC(=N)N)cc2)cc1 [Camostat]
[1]; Camostat 1.1 μM
  Virus titer: 7460 TCID50/ml and 6320 TCID50/ml and 12600 TCID50/ml
[1]; Camostat 3.3 μM
  Virus titer: 26200 TCID50/ml and 15900 TCID50/ml and 20000 TCID50/ml
[2]; 38.15 pM
  Inhibition: TMPRSS2: 2.63% and 1.07% and 2.97% and 3.20%
[2]; 76.29 pM
  Inhibition: TMPRSS2: 3.24% and 1.14% and 2.29% and 3.03%
[2]; 0.000152588 µM
  Inhibition: TMPRSS2: 4.34% and 0.64% and 2.45% and 2.60%
[2]; 0.000305176 µM
  Inhibition: TMPRSS2: 3.31% and 1.96% and 3.39% and 4.38%
[2]; 0.000610352 µM
  Inhibition: TMPRSS2: 3.86% and 5.10% and 6.39%
[2]; 0.0012207 µM
  Inhibition: TMPRSS2: 7.07% and 9.81% and 8.80%
[2]; 0.00244141 µM
  Inhibition: TMPRSS2: 17.35% and 18.09% and 18.86%
[2]; 0.00488281 µM
  Inhibition: TMPRSS2: 31.26% and 30.95% and 31.85%
[2]; 0.00976562 µM
  Inhibition: TMPRSS2: 51.72% and 52.80% and 52.15%
[2]; 0.0195312 µM
  Inhibition: TMPRSS2: 77.54% and 78.82% and 77.32%
[2]; 0.0390625 µM
  Inhibition: TMPRSS2: 94.79% and 94.98% and 94.57%
[2]; 0.078125 µM
  Inhibition: TMPRSS2: 99.75% and 99.96% and 99.42%
[2]; 0.15625 µM
  Inhibition: TMPRSS2: 100.65% and 100.24%
[2]; 0.3125 µM
  Inhibition: TMPRSS2: 99.93% and 100.23% and 99.75%
[2]; 0.625 µM
  Inhibition: TMPRSS2: 100.21% and 100.53% and 100.35%
[2]; 1.25 µM
  Inhibition: TMPRSS2: 99.64% and 100.51%
[2]; 2.5 µM
  Inhibition: TMPRSS2: 100.23% and 100.42% and 100.20%
[2]; 5 µM
  Inhibition: TMPRSS2: 99.87% and 100.54% and 99.70%
[2]; read-out: Inhibition: TMPRSS2
  inhibition at 0.000610352 µM: 6.23%
  inhibition at 0.0012207 µM: 9.58%
  inhibition at 0.00244141 µM: 17.5%
  inhibition at 0.00488281 µM: 31.5%
  inhibition at 0.00976562 µM: 52.1%
  inhibition at 0.0195312 µM: 77.3%
  inhibition at 0.0390625 µM: 94.7%
  inhibition at 0.078125 µM: 99.7%
  inhibition at 0.15625 µM: 100%
  inhibition at 0.3125 µM: 100%
  inhibition at 0.625 µM: 100%
  inhibition at 1.25 µM: 100%
  inhibition at 2.5 µM: 100%
  inhibition at 5 µM: 100%
[3]
  CC50: 173 µM
[4]; 0.0128 μM
  Cytotoxicity: 0.76% and 0.62% and 0.69%
[4]; 0.064 μM
  Cytotoxicity: 2.27% and 2.13% and 2.46%
[4]; 8 μM
  Cytotoxicity: 7.46% and 7.33% and 7.34%
[4]; 40 μM
  Cytotoxicity: 10.06% and 10.11% and 10.29%
[4]; 200 μM
  Cytotoxicity: 58.17% and 58.19% and 58.30%
[4]; 1000 μM
  Cytotoxicity: 96.27% and 96.26% and 96.22%

## CN1CCN(C(=O)N[C@@H](Cc2ccccc2)C(=O)N[C@H](/C=C/S(=O)(=O)c2ccccc2)CCc2ccccc2)CC1 [K777]
[5]; 0.0762939 nM, 7.62939e-05 µM
  Inhibition: CTSL: 1.13% and 5.78% and 3.59% and 2.15%
[5]; 0.152588 nM
  inhibition at 0.000152588 µM: 5.42%
[5]; 0.152588 nM, 0.000152588 µM
  Inhibition: CTSL: 10.09% and 6.36% and 10.80%
[5]; 0.610352 nM
  inhibition at 0.000610352 µM: 9.96%
[5]; 0.610352 nM, 0.000610352 µM
  Inhibition: CTSL: 11.08% and 11.88% and 12.12%
[5]; 1.2207 nM
  inhibition at 0.0012207 µM: 14.1%
[5]; 1.2207 nM, 0.0012207 µM
  Inhibition: CTSL: 15.17% and 15.67% and 15.23%
[5]; 2.44141 nM
  inhibition at 0.00244141 µM: 27.1%
[5]; 2.44141 nM, 0.00244141 µM
  Inhibition: CTSL: 29.89% and 27.84% and 28.16%
[5]; 4.88281 nM
  inhibition at 0.00488281 µM: 46.7%
[5]; 4.88281 nM, 0.00488281 µM
  Inhibition: CTSL: 49.46% and 47.59% and 48.29%
[5]; 9.76562 nM
  inhibition at 0.00976562 µM: 73.6%
[5]; 9.76562 nM, 0.00976562 µM
  Inhibition: CTSL: 74.62% and 72.91% and 72.68%
[5]; 19.5312 nM
  inhibition at 0.0195312 µM: 93.2%
[5]; 19.5312 nM, 0.0195312 µM
  Inhibition: CTSL: 93.40% and 92.49% and 94.07%
[5]; 39.0625 nM
  inhibition at 0.0390625 µM: 99.5%
[5]; 39.0625 nM, 0.0390625 µM
  Inhibition: CTSL: 98.76% and 99.78% and 99.61%
[5]; 78.125 nM
  inhibition at 0.078125 µM: 100%
[5]; 78.125 nM, 0.078125 µM
  Inhibition: CTSL: 99.93% and 100.35% and 99.32%
[5]; 156.25 nM
  inhibition at 0.15625 µM: 100%
[5]; 156.25 nM, 0.15625 µM
  Inhibition: CTSL: 100.75% and 100.78%
[5]; 312.5 nM
  inhibition at 0.3125 µM: 100%
[5]; 312.5 nM, 0.3125 µM
  Inhibition: CTSL: 100.44% and 100.24% and 99.50%
[5]; 625 nM
  inhibition at 0.625 µM: 100%
[5]; 625 nM, 0.625 µM
  Inhibition: CTSL: 100.05% and 99.89%
[5]; 1250 nM
  inhibition at 1.25 µM: 100%
[5]; 1250 nM, 1.25 µM
  Inhibition: CTSL: 100.44% and 100.07% and 99.92%
[5]; 2500 nM
  inhibition at 2.5 µM: 100%
[5]; 2500 nM, 2.5 µM
  Inhibition: CTSL: 100.03% and 100.38% and 100.68%
[5]; 5000 nM
  inhibition at 5 µM: 100%
[5]; 5000 nM, 5 µM
  Inhibition: CTSL: 100.04% and 100.18% and 100.13%
[5]; 10000 nM
  inhibition at 10 µM: 100%
[5]; 10000 nM, 10 µM
  Inhibition: CTSL: 100.22% and 100.09% and 99.98%
[3]
  CC50: 110 µM
[4]; 0.017 μM
  Cytotoxicity: 8.99% and 10.05% and 10.29%
[4]; 0.05 μM
  Cytotoxicity: 20.39% and 20.63% and 20.94%
[4]; 0.15 μM
  Cytotoxicity: 17.33% and 17.61% and 17.94%
[4]; 0.46 μM
  Cytotoxicity: 15.43% and 15.73% and 16.02%
[4]; 4.1 μM
  Cytotoxicity: 16.54% and 16.77% and 16.98%
[4]; 12.3 μM
  Cytotoxicity: 18.57% and 18.78% and 19.05%
[4]; 37 μM
  Cytotoxicity: 15.46% and 15.63% and 15.88%
[4]; 111.1 μM
  Cytotoxicity: 60.74% and 60.66% and 60.71%
[4]; 333.3 μM
  Cytotoxicity: 97.79% and 97.81%
[4]; 1000 μM
  Cytotoxicity: 99.56%
